Laboratory results published in the NIST ThermoML archive (doi:10.1021/je8006088).
Numbers after ± are expanded uncertainties.

Settings: Crystal; visual observation

Normal melting temperature: 120.6 ± 1.1 °C
SMILES: CC(C)=CCC[C@@H](C)[C@H]1CC[C@H]2[C@@H]3CC=C4C[C@@H](O)CC[C@]4(C)[C@H]3CC[C@]12C [desmosterol]
